The source of these data is ChEMBL document CHEMBL1201862, “PubChem BioAssay data set” (2004).

Experiment [1] concerns the target T1, Tyrosine-protein phosphatase non-receptor type 7 (Homo sapiens, UniProt P35236).
T1 sequence (P35236 whole entry): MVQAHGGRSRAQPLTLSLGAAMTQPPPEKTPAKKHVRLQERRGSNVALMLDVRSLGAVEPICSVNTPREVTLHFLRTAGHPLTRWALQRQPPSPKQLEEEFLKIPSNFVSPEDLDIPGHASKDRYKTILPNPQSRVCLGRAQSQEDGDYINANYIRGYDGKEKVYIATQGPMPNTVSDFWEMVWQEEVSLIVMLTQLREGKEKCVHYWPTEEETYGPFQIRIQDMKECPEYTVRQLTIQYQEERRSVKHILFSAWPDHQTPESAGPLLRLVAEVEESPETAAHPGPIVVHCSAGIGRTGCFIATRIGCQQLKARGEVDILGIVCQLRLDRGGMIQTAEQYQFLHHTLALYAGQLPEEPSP
In kind it is functional.

The target in experiment [2] is T2, Tyrosine-protein phosphatase non-receptor type 22 (Homo sapiens, UniProt Q9Y2R2).
T2 sequence (Q9Y2R2 whole entry): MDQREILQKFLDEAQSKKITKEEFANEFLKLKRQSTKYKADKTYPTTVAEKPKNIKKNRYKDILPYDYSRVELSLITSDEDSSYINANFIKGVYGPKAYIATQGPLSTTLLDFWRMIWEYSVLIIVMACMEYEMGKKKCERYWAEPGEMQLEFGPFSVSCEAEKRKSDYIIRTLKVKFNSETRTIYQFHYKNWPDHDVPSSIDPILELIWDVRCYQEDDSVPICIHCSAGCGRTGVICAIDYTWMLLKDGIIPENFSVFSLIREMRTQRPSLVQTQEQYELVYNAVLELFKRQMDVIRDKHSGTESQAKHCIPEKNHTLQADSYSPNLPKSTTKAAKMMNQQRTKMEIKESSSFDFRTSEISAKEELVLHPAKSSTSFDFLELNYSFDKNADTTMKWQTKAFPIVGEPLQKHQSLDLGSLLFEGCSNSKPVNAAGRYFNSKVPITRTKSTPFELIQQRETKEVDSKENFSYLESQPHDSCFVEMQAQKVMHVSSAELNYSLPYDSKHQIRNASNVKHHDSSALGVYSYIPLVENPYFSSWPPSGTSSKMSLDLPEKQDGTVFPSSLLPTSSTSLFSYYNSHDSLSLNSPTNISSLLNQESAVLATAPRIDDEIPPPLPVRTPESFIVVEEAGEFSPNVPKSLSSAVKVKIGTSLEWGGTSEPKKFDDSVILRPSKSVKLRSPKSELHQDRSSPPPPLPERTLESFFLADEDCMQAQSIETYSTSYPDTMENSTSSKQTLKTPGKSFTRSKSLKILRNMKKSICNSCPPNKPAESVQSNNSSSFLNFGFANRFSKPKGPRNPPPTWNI
In kind it is functional.

Experiment [3] has as its target T2, Tyrosine-protein phosphatase non-receptor type 22. The format is functional. This is another data set of the same source.
Experiment [4] addresses T3, SUMO-activating enzyme (Homo sapiens, UniProt Q9UBT2). The experiment in a line: blockers of UBC9-mediated SUMO conjugation – biochemical, AlphaScreen, SUMOylation inhibitor project, confirmation (AID 2018). In kind it is functional. (Bead proximity is the source of the signal in Alpha formats.)
A further experiment concerns the target Genome polyprotein (dengue virus type 2, UniProt P29990). The experiment can be described thus: flavivirus cap methylation enzyme inhibition – biochemical, confirmation dose response, primary screen (AID 588689). In kind it is functional.
The nature of the next experiment: cells. In kind it is functional.
Experiment [5] concerns the target T4, Replicative DNA helicase DnaB (Mycobacterium tuberculosis, UniProt P9WMR3).
T4 sequence (P9WMR3 whole entry): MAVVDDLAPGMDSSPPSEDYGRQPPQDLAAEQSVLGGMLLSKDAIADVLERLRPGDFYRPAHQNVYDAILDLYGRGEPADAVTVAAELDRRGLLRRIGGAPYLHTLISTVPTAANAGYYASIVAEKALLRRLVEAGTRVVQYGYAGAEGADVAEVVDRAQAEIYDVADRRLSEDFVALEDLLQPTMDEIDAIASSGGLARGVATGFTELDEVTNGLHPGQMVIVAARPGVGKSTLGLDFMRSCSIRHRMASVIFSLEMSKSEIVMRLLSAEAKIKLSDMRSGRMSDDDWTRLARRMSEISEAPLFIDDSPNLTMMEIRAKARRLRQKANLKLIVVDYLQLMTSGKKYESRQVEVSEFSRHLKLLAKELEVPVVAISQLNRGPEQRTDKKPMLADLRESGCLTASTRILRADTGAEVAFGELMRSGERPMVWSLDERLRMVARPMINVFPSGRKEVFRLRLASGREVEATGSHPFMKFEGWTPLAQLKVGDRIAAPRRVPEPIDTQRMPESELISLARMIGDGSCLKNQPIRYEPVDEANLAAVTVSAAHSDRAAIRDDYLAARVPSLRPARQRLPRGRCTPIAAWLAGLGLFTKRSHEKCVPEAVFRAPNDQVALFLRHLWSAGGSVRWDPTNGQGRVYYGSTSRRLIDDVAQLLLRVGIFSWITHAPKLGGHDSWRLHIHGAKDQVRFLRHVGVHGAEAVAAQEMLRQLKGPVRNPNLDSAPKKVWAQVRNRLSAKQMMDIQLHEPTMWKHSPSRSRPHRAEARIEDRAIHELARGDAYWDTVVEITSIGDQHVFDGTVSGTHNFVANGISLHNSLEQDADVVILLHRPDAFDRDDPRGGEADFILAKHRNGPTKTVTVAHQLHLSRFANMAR
The experiment in a line: DnaB intein splicing inhibitors, dose response, biochemical, cell-free fluorescence (AID 449749). The format is functional.

The target in experiment [6] is T3, SUMO-activating enzyme. The experiment can be described thus: blockers of SAE1/SAE2–UBC9 SUMO transfer – biochemical, HTRF, uHTS, primary screen (AID 2006). The format is protein-complex assay. On the technique in general: Time-resolved FRET reads energy transfer from a long-lived donor to a nearby acceptor.
Experiment [7] has as its target T5, Rac GTPase-activating protein 1 (Homo sapiens, UniProt Q9H0H5).
T5 sequence (Q9H0H5 whole entry): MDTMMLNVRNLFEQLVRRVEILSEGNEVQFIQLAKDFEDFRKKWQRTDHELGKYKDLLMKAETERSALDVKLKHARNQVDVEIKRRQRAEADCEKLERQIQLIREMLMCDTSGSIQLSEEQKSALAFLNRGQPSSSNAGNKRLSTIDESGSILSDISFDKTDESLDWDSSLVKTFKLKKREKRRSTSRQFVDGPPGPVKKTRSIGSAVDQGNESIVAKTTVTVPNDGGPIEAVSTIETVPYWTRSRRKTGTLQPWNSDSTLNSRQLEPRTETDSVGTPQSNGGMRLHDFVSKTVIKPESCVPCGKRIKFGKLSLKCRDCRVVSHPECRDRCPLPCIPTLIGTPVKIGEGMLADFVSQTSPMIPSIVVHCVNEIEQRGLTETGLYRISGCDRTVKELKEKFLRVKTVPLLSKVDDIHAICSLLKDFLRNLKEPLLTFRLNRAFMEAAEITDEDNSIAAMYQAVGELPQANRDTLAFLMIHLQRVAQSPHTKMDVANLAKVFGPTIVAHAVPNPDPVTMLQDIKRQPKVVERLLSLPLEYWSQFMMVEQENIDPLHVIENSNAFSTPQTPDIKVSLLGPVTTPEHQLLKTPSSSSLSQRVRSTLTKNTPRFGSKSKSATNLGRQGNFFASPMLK
The experiment can be described thus: blockers of MgcRacGAP-driven Rac1 GTP hydrolysis – biochemical, ADP Hunter fluorescence, primary and confirmatory, confirmation (AID 624330). In kind it is functional.

A further experiment has as its target T6, Protein RecA (Mycobacterium tuberculosis, UniProt P9WHJ3).
T6 sequence (P9WHJ3 whole entry): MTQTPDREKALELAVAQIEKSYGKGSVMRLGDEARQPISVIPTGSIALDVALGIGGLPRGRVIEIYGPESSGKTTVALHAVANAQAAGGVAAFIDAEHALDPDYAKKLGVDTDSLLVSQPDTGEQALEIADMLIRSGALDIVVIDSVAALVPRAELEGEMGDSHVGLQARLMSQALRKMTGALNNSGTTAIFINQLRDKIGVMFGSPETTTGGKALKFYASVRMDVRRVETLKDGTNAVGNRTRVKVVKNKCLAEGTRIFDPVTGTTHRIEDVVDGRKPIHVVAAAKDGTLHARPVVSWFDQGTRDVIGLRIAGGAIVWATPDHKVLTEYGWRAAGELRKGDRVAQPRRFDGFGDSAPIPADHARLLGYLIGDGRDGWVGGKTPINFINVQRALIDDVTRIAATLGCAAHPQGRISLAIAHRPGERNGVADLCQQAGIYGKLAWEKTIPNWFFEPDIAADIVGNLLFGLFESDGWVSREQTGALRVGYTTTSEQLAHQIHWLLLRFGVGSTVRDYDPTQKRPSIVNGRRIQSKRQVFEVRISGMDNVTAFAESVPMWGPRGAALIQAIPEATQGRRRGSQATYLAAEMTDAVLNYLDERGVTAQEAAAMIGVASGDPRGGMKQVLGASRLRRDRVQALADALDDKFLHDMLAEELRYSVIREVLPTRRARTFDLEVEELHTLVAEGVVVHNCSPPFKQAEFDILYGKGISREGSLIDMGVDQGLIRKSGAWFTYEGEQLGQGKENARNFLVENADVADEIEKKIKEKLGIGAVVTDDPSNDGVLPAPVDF
The experiment can be described thus: Fluorescence Cell-Free Homogeneous Dose Retest to Identify Inhibitors of RecA-Intein Splicing Activity. [Related pubchem assays (depositor defined):AID2097, AID2223, AID489010, AID492950]. The format is functional.

The next experiment relates to A-375. The experiment in a line: MITF: Counter assay: A375 proliferation Measured in Cell-Based System Using Plate Reader - 2084-03_Inhibitor_Dose_DryPowder_Activity. [Related pubchem assays (depositor defined):AID488944]. The format is functional. Conditions: Homo sapiens.
For experiment [8], the target named is T7, Microphthalmia-associated transcription factor (Homo sapiens, UniProt O75030).
T7 sequence (O75030 whole entry): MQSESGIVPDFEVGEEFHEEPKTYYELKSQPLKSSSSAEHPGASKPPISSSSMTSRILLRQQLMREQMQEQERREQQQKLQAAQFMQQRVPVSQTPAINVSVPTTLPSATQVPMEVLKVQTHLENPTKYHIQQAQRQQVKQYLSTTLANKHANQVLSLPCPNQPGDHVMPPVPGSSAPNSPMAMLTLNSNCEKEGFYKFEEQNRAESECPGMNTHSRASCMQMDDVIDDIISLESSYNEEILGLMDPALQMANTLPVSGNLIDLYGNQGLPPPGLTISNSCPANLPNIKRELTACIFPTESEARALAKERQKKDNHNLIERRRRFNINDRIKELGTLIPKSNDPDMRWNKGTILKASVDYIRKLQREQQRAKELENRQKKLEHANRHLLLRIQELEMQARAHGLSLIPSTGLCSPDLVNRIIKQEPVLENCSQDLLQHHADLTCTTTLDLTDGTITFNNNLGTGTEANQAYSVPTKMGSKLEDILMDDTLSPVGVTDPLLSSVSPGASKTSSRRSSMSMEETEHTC
The experiment can be described thus: reducers of TRPM1 reporter luminescence, concentration series – cell-based, SK-MEL-5, cherry-picked, set 3, MITF inhibitor project, dose response (AID 493073).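 Further: SK-MEL-5 melanoma cells with luciferase driven by the MITF target TRPM1 promoter.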 The format is functional.

Experiment [9] has as its target Glucose-6-phosphate 1-dehydrogenase (Homo sapiens, UniProt P11413). The experiment can be described thus: inhibition of Homo sapiens G6PD, dose series – biochemical, fluorescence, selectivity assay for P. falciparum G6PD inhibitor project, dose response (AID 504792). The format is functional.
The target of experiment [10] is T8, Corticotropin-releasing factor receptor 2/Corticotropin-releasing factor-binding protein (Homo sapiens, UniProt P24387+Q13324).
T8 sequence (Q13324 whole entry): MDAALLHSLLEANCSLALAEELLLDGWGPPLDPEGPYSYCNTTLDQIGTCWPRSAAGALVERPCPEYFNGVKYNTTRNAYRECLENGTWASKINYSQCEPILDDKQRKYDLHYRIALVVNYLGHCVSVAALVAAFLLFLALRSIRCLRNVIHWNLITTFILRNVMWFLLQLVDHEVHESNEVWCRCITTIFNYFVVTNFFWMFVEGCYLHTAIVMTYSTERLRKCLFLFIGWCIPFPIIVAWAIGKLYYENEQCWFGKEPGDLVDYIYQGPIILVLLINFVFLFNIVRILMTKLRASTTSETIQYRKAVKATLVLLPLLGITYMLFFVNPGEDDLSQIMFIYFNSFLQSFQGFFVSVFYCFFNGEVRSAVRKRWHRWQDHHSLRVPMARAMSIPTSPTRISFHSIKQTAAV
T8 sequence (P24387 whole entry): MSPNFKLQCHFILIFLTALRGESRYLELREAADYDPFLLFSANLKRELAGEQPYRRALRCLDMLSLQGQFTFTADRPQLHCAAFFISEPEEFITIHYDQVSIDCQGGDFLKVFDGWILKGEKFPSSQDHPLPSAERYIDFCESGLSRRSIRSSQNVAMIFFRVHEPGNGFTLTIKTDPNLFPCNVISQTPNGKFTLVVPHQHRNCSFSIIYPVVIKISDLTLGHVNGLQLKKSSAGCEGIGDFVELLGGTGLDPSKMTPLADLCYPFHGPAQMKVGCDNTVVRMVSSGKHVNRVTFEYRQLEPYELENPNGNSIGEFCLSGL
The experiment can be described thus: activators of CRF receptor 2 with binding protein – uHTS hits, confirmation (AID 602473). In kind it is functional. Particulars: read-out: EC50_Mean.

The source made the active and inactive calls. Some results are limits rather than exact numbers.

By IC50 is commonly meant the concentration that gives 50% inhibition. As a reminder, the AC50 is the concentration giving half of the maximal activity seen.

T3 sequence (Q9UBE0 whole entry): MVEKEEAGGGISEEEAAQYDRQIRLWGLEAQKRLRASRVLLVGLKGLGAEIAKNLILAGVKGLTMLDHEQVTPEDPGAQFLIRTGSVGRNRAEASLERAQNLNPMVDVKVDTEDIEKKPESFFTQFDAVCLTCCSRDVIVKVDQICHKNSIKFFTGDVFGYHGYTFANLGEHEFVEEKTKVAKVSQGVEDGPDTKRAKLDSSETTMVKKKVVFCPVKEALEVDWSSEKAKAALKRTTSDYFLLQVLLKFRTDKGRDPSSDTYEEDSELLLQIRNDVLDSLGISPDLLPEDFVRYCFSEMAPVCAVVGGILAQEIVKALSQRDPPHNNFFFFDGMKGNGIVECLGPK
T3 sequence (Q9UBT2 whole entry): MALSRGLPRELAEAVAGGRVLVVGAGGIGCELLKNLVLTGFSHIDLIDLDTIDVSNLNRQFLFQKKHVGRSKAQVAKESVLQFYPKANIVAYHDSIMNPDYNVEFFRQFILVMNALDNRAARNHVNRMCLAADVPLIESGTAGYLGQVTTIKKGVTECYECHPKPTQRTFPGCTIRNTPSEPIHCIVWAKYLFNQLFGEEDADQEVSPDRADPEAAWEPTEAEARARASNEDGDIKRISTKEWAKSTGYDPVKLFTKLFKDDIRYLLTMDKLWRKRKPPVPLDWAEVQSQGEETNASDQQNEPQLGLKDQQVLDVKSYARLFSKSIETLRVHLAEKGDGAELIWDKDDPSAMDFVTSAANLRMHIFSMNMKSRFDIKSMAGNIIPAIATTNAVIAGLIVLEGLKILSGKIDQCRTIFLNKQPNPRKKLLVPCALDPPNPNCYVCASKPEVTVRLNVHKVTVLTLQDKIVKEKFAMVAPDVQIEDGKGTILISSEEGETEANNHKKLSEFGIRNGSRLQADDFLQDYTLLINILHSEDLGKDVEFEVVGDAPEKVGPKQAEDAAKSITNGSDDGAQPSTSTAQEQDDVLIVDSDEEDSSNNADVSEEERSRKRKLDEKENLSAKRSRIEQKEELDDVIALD
Chain of Glucose-6-phosphate 1-dehydrogenase (P11413 whole entry): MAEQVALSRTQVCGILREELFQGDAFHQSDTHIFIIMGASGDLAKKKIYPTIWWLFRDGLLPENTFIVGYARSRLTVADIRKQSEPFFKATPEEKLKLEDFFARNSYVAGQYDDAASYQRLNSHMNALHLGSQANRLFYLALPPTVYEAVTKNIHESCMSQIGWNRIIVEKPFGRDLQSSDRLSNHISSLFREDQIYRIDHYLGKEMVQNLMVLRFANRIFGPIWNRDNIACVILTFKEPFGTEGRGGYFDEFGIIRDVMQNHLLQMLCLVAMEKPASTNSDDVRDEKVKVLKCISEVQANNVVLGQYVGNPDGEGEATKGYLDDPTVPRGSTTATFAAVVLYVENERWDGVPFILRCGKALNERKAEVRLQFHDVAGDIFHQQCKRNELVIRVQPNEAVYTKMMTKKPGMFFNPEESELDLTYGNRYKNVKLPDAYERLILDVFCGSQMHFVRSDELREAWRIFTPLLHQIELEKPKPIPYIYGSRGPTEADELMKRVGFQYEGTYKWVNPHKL
Chain of Genome polyprotein (P29990 2492-3391 limits assumed): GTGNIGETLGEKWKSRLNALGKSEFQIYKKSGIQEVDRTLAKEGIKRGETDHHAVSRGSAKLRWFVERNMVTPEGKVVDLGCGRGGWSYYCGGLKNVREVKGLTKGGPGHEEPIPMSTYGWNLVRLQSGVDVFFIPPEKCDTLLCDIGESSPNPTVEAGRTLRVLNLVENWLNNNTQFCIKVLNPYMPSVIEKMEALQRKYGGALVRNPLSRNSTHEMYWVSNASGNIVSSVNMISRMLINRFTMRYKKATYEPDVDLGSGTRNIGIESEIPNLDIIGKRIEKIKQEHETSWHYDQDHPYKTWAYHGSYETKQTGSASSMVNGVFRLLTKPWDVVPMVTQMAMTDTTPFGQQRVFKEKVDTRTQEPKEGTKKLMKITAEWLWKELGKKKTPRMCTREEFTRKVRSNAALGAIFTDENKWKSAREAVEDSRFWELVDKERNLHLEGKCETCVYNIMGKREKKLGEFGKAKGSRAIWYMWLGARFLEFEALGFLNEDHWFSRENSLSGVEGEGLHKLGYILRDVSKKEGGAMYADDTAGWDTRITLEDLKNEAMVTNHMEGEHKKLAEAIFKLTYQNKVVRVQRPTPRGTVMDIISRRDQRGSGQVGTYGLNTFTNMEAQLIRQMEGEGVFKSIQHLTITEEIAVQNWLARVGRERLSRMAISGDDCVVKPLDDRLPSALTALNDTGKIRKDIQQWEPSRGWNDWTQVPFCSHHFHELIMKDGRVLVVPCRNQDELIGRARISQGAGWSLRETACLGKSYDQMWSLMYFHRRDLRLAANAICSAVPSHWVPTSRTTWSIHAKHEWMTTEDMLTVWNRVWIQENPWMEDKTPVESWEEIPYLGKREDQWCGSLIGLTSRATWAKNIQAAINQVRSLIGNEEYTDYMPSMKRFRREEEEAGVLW

As to `CCOc1ccccc1NC(=O)CSc1nnc(Cc2cccn2C)n1-c1ccc(F)cc1`, the IC50 in experiment [1], in experiment [2] and in experiment [3] was > 79.4 µM (inactive) throughout.
For the molecule `CC1=NN(c2ccc(C(=O)O)cc2)C(=O)/C1=C\c1ccc(OC(=O)c2cccs2)cc1`, the IC50 at SUMO-activating enzyme [4] was 7.86 µM (active); at Genome polyprotein, 15.6 µM (active); in “cells”, 15.1 µM (active); at SUMO-activating enzyme [6] it was 57.7 µM (active); in [7] it was 185 µM (active). In addition, the AC50 in experiment [5] was 2.08 µM (active). The EC50 at Protein RecA was 1.9 µM (active).
In the case of `CN(C)c1ccc(/C=C(\C#N)c2ccccn2)cc1`, the AC50 in the experiment on A-375 was 45.2 µM (active); in experiment [8], 6.32 µM (active).
For `N#Cc1ccc(N=c2ssnc2Cl)cc1`, in experiment [9], the IC50 is 48.3 µM (inactive).
On to `CCOC(=O)/C=c1/s/c(=C/c2ccc3cc(OC)ccc3c2)c(=O)n1CC(=O)NCC1CCCO1` (stereo unspecified), for which the AC50 in the experiment with A-375 is 29.7 µM (active); in experiment [8] it was 6.79 µM (active). Further, in [10], the EC50 is 7.75 µM (active).
